Laboratory results: PubChem BioAssay (NCI)
Several values for one entry are separate records, joined by “and”; a condition that tells them apart may be missing. Equal entries are not always repeated.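 Test compounds were applied to cells in 96-well plates for 48 hours at 5 doses. At the GI50, growth is halved. At the TGI there is no net growth.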

test system: MDA-MB-468 breast; assay: DTP human tumour cell line panel, 48 h

Compound	GI50	TGI
CC(C)=CCc1cc(O)cc2c1OC(C=C(C)C)C1=C2C(=O)C2=C(C1=O)S(=O)(=O)CCN2 (stereo not drawn)	2.68 µM	8.24 µM
CC1CCN(C(=O)OCc2nc3nc(Cl)nc(N4CCOCC4)c3[nH]2)CC1	0.715 µM	2.37 µM
CCc1ccc(/C=C/c2ccc(O)c3ncccc23)[n+](C)c1	0.539 µM	> 36.5 µM
CCN(Cc1ccc(F)cc1)c1ccc(CO)c(Br)c1	0.0224 µM	0.0608 µM
C#Cc1nc(Nc2cc(C)[nH]n2)c2ccccc2n1	0.184 µM	0.45 µM
Cc1ccc2c(C3C(C#N)=C(N)Oc4cc5ccccc5cc43)cc(=O)oc2c1 (stereo not drawn)	0.925 µM	67.1 µM
O=C1c2cccc3cccc(c23)C(=O)N1CCCCCN1CCN(CCCCCOc2ccc(-c3nc4ccc(N5CCOCC5)cc4[nH]3)cc2)CC1	20.3 µM	34.6 µM
NCCc1cc(O)c(O)cc1O	20.7 µM	97.8 µM
COc1cc(C2CC(c3cccc(Nc4ccncc4)c3)=NN2c2ccc(Cl)cc2)cc(OC)c1OC (stereo not drawn)	1.63 µM	3.45 µM
CN1CC[C@@H](c2c(O)cc(O)c3c(=O)cc(-c4ccc(C(F)(F)F)cc4Cl)oc23)[C@@H]1CO	12.2 µM	29.6 µM
CS(=O)(=O)Nc1cc(-c2ccc3ncnc(Nc4c(Cl)ccc5c4OCO5)c3c2)cnc1Cl	0.128 µM	0.454 µM
CC1(C)N=C(N)N=C(N)N1c1ccc(CCCCc2ccc(Cl)c(S(=O)(=O)F)c2)c(Cl)c1	2.51 µM	16.4 µM
Cc1ccc(Nc2oc(-c3ccccc3)nc2[P+](c2ccccc2)(c2ccccc2)c2ccccc2)cc1	0.266 µM	0.895 µM
C=COC(=O)N[C@H]1CCc2cc(OC)c(OC)c(OC)c2-c2ccc(SC)c(=O)cc21	< 0.01 µM	> 100 µM
COc1cc(/C=C/C(=O)c2cccc(-n3cc(-c4ccc(Cl)cc4)[nH]c3=O)c2)ccc1O	3.12 µM	19.2 µM
COc1ccc(-c2nnc(N3CCN(C(=O)CN4CCN(c5ccccc5)CC4)CC3)nc2-c2ccc(OC)cc2)cc1	8.31 µM	> 100 µM
BrCc1cccc(C[P+](c2ccccc2)(c2ccccc2)c2ccccc2)c1	2.25 µM	8.36 µM
CC(C(=O)O)c1cccc(Oc2ccccc2)c1 (stereo not drawn)	> 100 µM	> 100 µM
CN(C)CCC(=O)C(=Cc1ccc(O)cc1)C(=O)CCN(C)C	26.8 µM	75.2 µM
O=[N+]([O-])c1cccc2ccc(N/N=C/c3ccccc3O)nc12	0.676 µM	> 100 µM
CCOC(=O)c1c(-c2ccc(OC)cc2)c(C#N)c2c(C#N)c(N)nn2c1N	2.08 µM	6.86 µM
COc1ccccc1Nc1ncc(-c2ccccc2)o1	3.02 µM	> 25 µM
Cn1cc(-c2csc(-c3c[nH]c4ccc(Br)cc34)n2)c2cnccc21	1.68 µM	3.56 µM
CN(C)C(=S)Sc1ccc([N+](=O)[O-])cc1[N+](=O)[O-]	2.12 µM	5.78 µM
O=C(NNc1ccccc1)C(=O)NNc1ccccc1	> 100 µM	> 100 µM

Compound	GI50	TGI
Cn1c(=O)c(Oc2ccc(F)cc2)cc2cnc(NC3CCOCC3)nc21	> 25 µM	> 25 µM
C[C@H](Nc1cc(Cl)nc2c1cnn2[C@@H]1O[C@H](COP(=O)(O)CP(=O)(O)O)[C@@H](O)[C@H]1O)c1ccccc1F	> 100 µM	> 100 µM
COc1ccc(-c2cc(/C=C/C(=O)c3ccc(OC)c(OC)c3)[nH]n2)cc1	1.22 µM	2.94 µM
CN(C)C/C=C/C(=O)Nc1cc2c(Nc3ccc(F)c(Cl)c3)ncnc2cc1O[C@H]1CCOC1	< 0.01 µM and 0.00112 µM	0.01 µM and 0.0067 µM
Nc1ccn(C2OC(CO)C(O)C2O)c(=O)n1 (stereo not drawn)	> 61.1 µM	> 100 µM
COC(=O)c1ccc2c(c1)/C(=C\c1cc(Br)c(O)c(Br)c1)C(=O)N2	6.09 µM	> 22 µM
CSc1nc(NC2OC(COC(C)=O)C(OC(C)=O)C(OC(C)=O)C2OC(C)=O)c(N=CC=Nc2c(NC3OC(COC(C)=O)C(OC(C)=O)C(OC(C)=O)C3OC(C)=O)nc(SC)n(C)c2=O)c(=O)n1C (stereo not drawn)	39.4 µM	50 µM
O=C1CCC/C=C\C[C@H]2C=CC(=O)/C2=C/C[C@H](C/C=C\CC(F)(F)F)O1	0.521 µM	2.51 µM
COc1ccc(C(O)(CCC(C)C)C(CN2CCOCC2)c2ccc(Cl)cc2)cc1 (stereo not drawn)	7.43 µM	23.4 µM
Cc1cc(N(CCCNc2ccnc3cc(Cl)ccc23)Cc2ccc3c(c2)OCO3)nc(N2CCOCC2)n1	0.202 µM	0.562 µM
O=C1c2cc3c(cc2-c2c1c1cc(Cl)c(Cl)cc1c(=O)n2C[C@H](O)CO)OCO3	< 0.01 µM	0.0305 µM
O=[N+]([O-])c1ccc(CI)cc1	1.71 µM	4.09 µM
Nc1c(C(=O)c2ccccc2)cnn1-c1ccc(F)cc1	> 25 µM	> 25 µM
Clc1nc(Cl)nc(Nc2cccc3ccccc23)n1	52.1 µM	> 100 µM
CC(C)OC(=O)[C@H](C)NP(=O)(OC[C@H]1O[C@@H](n2ccc(=O)[nH]c2=O)[C@](C)(F)[C@@H]1O)Oc1ccccc1 (stereo partly drawn)	> 100 µM	> 100 µM
COc1cccc2c1C(=O)c1c(O)c3c(c(O)c1C2=O)C[C@@](O)(/C(C)=N/NC(=O)c1ccc(Cl)cc1)C[C@@H]3OC1CC(N)C(O)C(C)O1 (stereo partly drawn)	0.174 µM	0.495 µM
O=[P@@]1(c2ccccc2)O[C@H](COCc2ccccc2)[C@@H](OCc2ccccc2)[C@H](OCc2ccccc2)[C@H]1NCc1ccccc1	3.06 µM	12.6 µM
COc1cc(/C=C\c2cc(OC)c(OC)c(OC)c2)cc(N/C=C\C(=O)c2cc(OC)c(OC)c(OC)c2)c1OC	1.88 µM	6.34 µM
CN(C)c1ccc(N=Nc2ccccn2)c(O)c1	0.204 µM	0.912 µM
O=S(=O)(Nc1ccc(Cl)cc1Cl)c1ccc(-c2cnc(C3CC3)o2)cc1	0.339 µM	2.9 µM
Cn1c(Nc2ccc(C(F)(F)F)cc2)nc2cc(Oc3ccnc(-c4ncc(C(F)(F)F)[nH]4)c3)ccc21	0.127 µM	11.4 µM
Cc1nc2cc(Nc3nc(Nc4ccc(F)cc4)nc(-c4cccs4)n3)ccc2n1Cc1ccccc1	3.62 µM	35.4 µM
Nc1ncc(-c2ccc3ncnc(N4CCc5cc(F)c(Cl)cc54)c3c2)cc1CO	0.236 µM	0.933 µM
COc1ccc(-c2nsc3c2NC(=O)CC3c2cccc(OC)c2)cc1 (stereo not drawn)	0.395 µM	3.97 µM
